Laboratory results taken from article PMC7785020, “A unique hormonal recognition feature of the human glucagon-like peptide-2 receptor” (Cell Research, 2020).
Changes are numbered by the printed parent chain. No end group written: not given here.

How the values were obtained:
GLP-2R R344^5.40A = target: T1, GLP-2R R344^5.40A (Homo sapiens, UniProt O95838, R344A); test: radioligand competition binding, R344^5.40A; parameters: WT (1–553); expressed in transfected cells; host or cells: COS-7; details: COS-7, R344^5.40A; [^125I]GLP-2(1–33, M10Y) 10–15 pM, 4 h, 4 °C; mean ± SEM, n ≥ 3 in duplicate
T1 sequence (O95838 1-553 R344A): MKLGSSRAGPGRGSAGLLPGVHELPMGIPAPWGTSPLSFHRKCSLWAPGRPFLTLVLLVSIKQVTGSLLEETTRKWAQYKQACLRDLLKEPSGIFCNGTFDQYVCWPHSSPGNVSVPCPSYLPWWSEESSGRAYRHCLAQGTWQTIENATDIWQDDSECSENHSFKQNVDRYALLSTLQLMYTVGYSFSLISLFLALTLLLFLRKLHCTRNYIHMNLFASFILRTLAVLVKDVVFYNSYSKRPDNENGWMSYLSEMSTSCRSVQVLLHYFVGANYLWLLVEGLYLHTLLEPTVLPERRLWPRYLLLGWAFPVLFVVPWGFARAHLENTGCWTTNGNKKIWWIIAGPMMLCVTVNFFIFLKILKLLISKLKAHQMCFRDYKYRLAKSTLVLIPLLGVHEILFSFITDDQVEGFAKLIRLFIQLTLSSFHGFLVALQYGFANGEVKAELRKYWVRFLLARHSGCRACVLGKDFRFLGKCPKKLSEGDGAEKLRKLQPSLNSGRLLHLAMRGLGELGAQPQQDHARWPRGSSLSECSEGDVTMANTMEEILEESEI
Experimental: A stepwise oxidation reaction was performed by addition of 6 aliquots of 5 µL ChloramineT (30 µL/mL) with a 1-min interval during constant stirring. The reaction was terminated by the addition of 400 µL phase A (0.1% trifluoracetic acid) before being fractionated into 1 mL volume by reverse-phase high-performance liquid chromatography (RP-HPLC, Waters 600 SimiPrep system) on a C18 column. The iodinated protein was […] by increasing concentrations of phase B (Acetonitrile + 0.1% TFA) and tested for competitive binding ability.
One day before transfection, the COS-7 cells were seeded in 75 cm^2 culture flasks (3 million cells/flask) in DMEM, containing 3.9 g/L NaHCO3 and supplemented with 10% FBS, 1% L-glutamine, 180 units/mL penicillin and 45 µg/mL streptomycin. After an overnight culture at 37 °C, 10% CO2 and 95% air humidity, the cells were transiently transfected with different GLP-2R constructs or pcDNA3.1 vector as previously described.[52] Following 24-h incubation, the cells were transferred to Costa® microtiter plates (150,000 cells/well, PerkinElmer) to achieve a 5%–10% specific binding. […] The cells were then washed twice in binding buffer (4 °C), lysed and counted for radioactivity using a Wallac Gamma Counter (PerkinElmer).

GLP-2R D244^ECL1A = target: T2, GLP-2R D244^ECL1A (Homo sapiens, UniProt O95838, D244A); test: cAMP accumulation, D244^ECL1A; format: cell-based; parameters: WT (1–553); expressed in transfected cells; HEK 293T (cAMP); details: Table S5, D244A, HEK 293T, 30 min, RT, mean ± SEM, n ≥ 3 in duplicate; for Emax: read-out: cAMP Emax (% WT); for EC50: read-out: cAMP pEC50 (converted)
T2 sequence (O95838 1-553 D244A): T1 sequence (O95838 1-553 R344A) with D244A, A344R
Experimental: HEK 293T cells were cultured in Dulbecco’s Modified Eagle’s Medium (DMEM) (Gibco, Waltham, USA) supplemented with 10% (v/v) fetal bovine serum (FBS) (Gibco) and 1% (v/v) sodium pyruvate (Gibco) at 37 °C, 5% CO2 in a humidified incubator. They were seeded onto 6-well cell culture plates and transiently transfected with different GLP-2R constructs using Lipofectamine 2000 transfection reagent (Invitrogen, Carlsbad, CA, USA). After 24 h, the transfected cells were seeded onto 384-well microtiter plates (3000 cells per well) in HBSS supplemented with 5 mM HEPES, 0.1% (w/v) bovine serum albumin (BSA) and 0.5 mM 3-isobutyl-1- methylxanthine, and stimulated with increasing concentrations of GLP-2 for 30 min at RT. Eu and Ulight were diluted by cAMP detection buffer and added to the plates separately to terminate the reaction. Plates were incubated at RT for 60 min before measuring the fluorescence intensity at 620 nm and […] by an EnVision multilabel plate reader (PerkinElmer, Boston, USA).

| Emax (GLP-2R D244^ECL1A) | EC50 (GLP-2R D244^ECL1A) | Compound | % Binding of WT (GLP-2R R344^5.40A) |
| --- | --- | --- | --- |
| – | – | CC[C@H](C)[C@H](NC(=O)[C@H](Cc1ccccc1)NC(=O)[C@H](CC(=O)O)NC(=O)[C@H](CCCNC(=N)N)NC(=O)[C@H](C)NC(=O)[C@H](C)NC(=O)[C@H](CC(C)C)NC(=O)[C@H](CC(N)=O)NC(=O)[C@H](CC(=O)O)NC(=O)[C@H](CC(C)C)NC(=O)[C@@H](NC(=O)[C@@H](NC(=O)[C@H](CC(N)=O)NC(=O)[C@H](CCSC)NC(=O)[C@H](CCC(=O)O)NC(=O)[C@H](CC(=O)O)NC(=O)[C@H](CO)NC(=O)[C@H](Cc1ccccc1)NC(=O)[C@H](CO)NC(=O)CNC(=O)[C@H](CC(=O)O)NC(=O)CNC(=O)[C@@H](N)Cc1c[nH]cn1)[C@@H](C)O)[C@@H](C)CC)C(=O)N[C@@H](CC(N)=O)C(=O)N[C@@H](Cc1c[nH]c2ccccc12)C(=O)N[C@@H](CC(C)C)C(=O)N[C@H](C(=O)N[C@@H](CCC(N)=O)C(=O)N[C@H](C(=O)N[C@@H](CCCCN)C(=O)N[C@H](C(=O)N[C@H](C(=O)N[C@@H](CC(=O)O)C(=O)O)[C@@H](C)O)[C@@H](C)CC)[C@@H](C)O)[C@@H](C)CC [Teduglutide] | 3.5 ± 0.8 % |
| 104 ± 1.8% | 0.251 nM | HADGSFSDEMNTILDNLAAKEFIAWLVKGRG [Chimeric GLP-1/GLP-2 (20-33)] | – |
| 102 ± 1.8% | 3.16 nM | HADGSFTSDVSSYLEGQAARDFINWLIQTKITD [Chimeric GLP-1/GLP-2 (7-19)] | – |
| 102 ± 2.5% | 0.251 nM | HAEGTFSDEMNTILDNLAARDFINWLIQTKITD [Chimeric GLP-1/GLP-2 (1-6)] | – |

| Compound | Emax (GLP-2R D244^ECL1A) | EC50 (GLP-2R D244^ECL1A) | % Binding of WT (GLP-2R R344^5.40A) |
| --- | --- | --- | --- |
| CC[C@H](C)[C@H](NC(=O)[C@H](Cc1ccccc1)NC(=O)[C@H](CC(=O)O)NC(=O)[C@H](CCCNC(=N)N)NC(=O)[C@H](C)NC(=O)[C@H](C)NC(=O)[C@H](CC(C)C)NC(=O)[C@H](CC(N)=O)NC(=O)[C@H](CC(=O)O)NC(=O)[C@H](CC(C)C)NC(=O)[C@@H](NC(=O)[C@@H](NC(=O)[C@H](CC(N)=O)NC(=O)[C@H](CCSC)NC(=O)[C@H](CCC(=O)O)NC(=O)[C@H](CC(=O)O)NC(=O)[C@H](CO)NC(=O)[C@H](Cc1ccccc1)NC(=O)[C@H](CO)NC(=O)CNC(=O)[C@H](CC(=O)O)NC(=O)[C@H](C)NC(=O)[C@@H](N)Cc1c[nH]cn1)[C@@H](C)O)[C@@H](C)CC)C(=O)N[C@@H](CC(N)=O)C(=O)N[C@@H](Cc1c[nH]c2ccccc12)C(=O)N[C@@H](CC(C)C)C(=O)N[C@H](C(=O)N[C@@H](CCC(N)=O)C(=O)N[C@H](C(=O)N[C@@H](CCCCN)C(=O)N[C@H](C(=O)N[C@H](C(=O)N[C@@H](CC(=O)O)C(=O)O)[C@@H](C)O)[C@@H](C)CC)[C@@H](C)O)[C@@H](C)CC [Human GLP-2 (1–33)] | 101 ± 2.8% | – | 5.0 ± 0.8 % |
